How the values were obtained:
[1] = target: T1, kinase domain protein of RC kinase (RCK) (Homo sapiens, UniProt Q56UN5); assay: Kinase competition binding assay (Kd, qPCR readout), RC kinase; conditions: Kd class, read-out: RCK Activity Level
T1 construct: made in house; host or cells: E. coli BL21-derived host (T7 phage) or HEK-293
T1 sequence (Q56UN5 1061-1324 limits assumed): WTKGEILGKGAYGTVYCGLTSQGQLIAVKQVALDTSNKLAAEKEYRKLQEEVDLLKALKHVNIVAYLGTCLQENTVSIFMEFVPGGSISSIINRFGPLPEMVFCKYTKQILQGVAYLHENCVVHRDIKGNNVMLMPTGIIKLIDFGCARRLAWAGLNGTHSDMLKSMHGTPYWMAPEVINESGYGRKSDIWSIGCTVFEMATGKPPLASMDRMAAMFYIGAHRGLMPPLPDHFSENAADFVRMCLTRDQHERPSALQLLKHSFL
Experimental: (§1) For most assays, kinase-tagged T7 phage strains were prepared in an E. coli host derived from the BL21 strain. E. coli were grown to log-phase and infected with T7 phage and incubated with shaking at 32° C. until lysis. The lysates were centrifuged and filtered to remove cell debris. The remaining kinases were produced in HEK-293 cells and subsequently tagged with DNA for quantitative PCR (qPCR) detection.
(§2) Streptavidin-coated magnetic beads were treated with biotinylated small molecule ligands for 30 minutes at room temperature to generate affinity resins for kinase assays. The liganded beads were blocked with excess biotin and washed with blocking buffer (SeaBlock (Pierce), 1% BSA, 0.05% Tween 20, 1 mM DTT) to remove unbound ligand and to reduce nonspecific binding. Binding reactions were assembled by combining kinases, liganded affinity beads, and test compounds in 1× binding buffer (20% SeaBlock, 0.17×PBS, 0.05% Tween 20, 6 mM DTT). All reactions were performed in polystyrene 96-well plates in a final volume of 0.135 mL. The assay plates were incubated at room temperature with shaking for 1 hour and the affinity beads were washed with wash buffer (1×PBS, 0.05% Tween 20). The beads were then re-suspended in elution buffer (1×PBS, 0.05% Tween 20, 0.5 μM non-biotinylated affinity ligand) and incubated at room temperature with shaking for 30 minutes. The kinase concentration in the eluates was measured by qPCR.
(§3) An 11-point 3-fold serial dilution of each test compound was prepared in 100% DMSO at 100× final test concentration and subsequently diluted to 1× in the assay (final DMSO concentration=1%). Most Kd values were determined using a compound top concentration=30,000 nM. If the initial Kd determined was <0.5 nM, (the lowest concentration tested), the measurement was repeated with a serial dilution starting at a lower top concentration. A more detailed description of this assay may be found in Fabian, M. A. et al. Nat. Biotechnol. 2005, 23, 329-336, which is incorporated herein in its entirety.
(§4) The biological results of inhibition of the kinase domain protein of RC kinase (RCK) and JAK2 and JAK3 are summarized in Tables 2 and 3, wherein A represents a Kd of <50 nM; B represents 50 nM<Kd<100 nM; C represents 100 nM<Kd<1000 nM; and D represents a Kd>1000 nM.

JAK2 = target: T2, JAK2 (Homo sapiens, UniProt O60674); assay: Kinase competition binding assay (Kd, qPCR readout), JAK2; conditions: for Kd: Kd class, JAK2, read-out: JAK2 Activity Level; for RCK:JAK2 selectivity ratio: ratio Kd (JAK2): Kd(RCK)
T2 construct: made in house; host or cells: E. coli BL21-derived host (T7 phage) or HEK-293
T2 sequence (O60674 840-1132 limits assumed): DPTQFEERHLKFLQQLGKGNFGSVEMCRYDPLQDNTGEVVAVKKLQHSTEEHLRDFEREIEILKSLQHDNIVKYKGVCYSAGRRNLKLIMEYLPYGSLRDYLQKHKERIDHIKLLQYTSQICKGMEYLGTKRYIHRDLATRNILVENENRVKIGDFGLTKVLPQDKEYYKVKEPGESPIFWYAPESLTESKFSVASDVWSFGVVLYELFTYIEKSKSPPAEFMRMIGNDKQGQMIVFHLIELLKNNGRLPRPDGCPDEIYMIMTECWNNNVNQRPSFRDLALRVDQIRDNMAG
Experimental: as §1, §2, §3, §4
Additionally, RCK:JAK2 selectivity, as measured by the ratio Kd (JAK2): Kd(RCK) is represented as follows: A represents Kd (JAK2): Kd (RCK)>100; B represents 10<Kd(JAK2): Kd (RCK)<100; C represents 1<Kd (JAK2): Kd (RCK)<10; and D represents Kd(JAK2): Kd (RCK)<1.

JAK3 = target: T3, JAK3 (Homo sapiens, UniProt P52333); assay: Kinase competition binding assay (Kd, qPCR readout), JAK3; conditions: for Kd: Kd class, JAK3, read-out: JAK3 Activity Level; for RCK:JAK3 selectivity ratio: ratio Kd (JAK3): Kd (RCK)
T3 construct: made in house; host or cells: E. coli BL21-derived host (T7 phage) or HEK-293
T3 sequence (P52333 811-1124 limits assumed): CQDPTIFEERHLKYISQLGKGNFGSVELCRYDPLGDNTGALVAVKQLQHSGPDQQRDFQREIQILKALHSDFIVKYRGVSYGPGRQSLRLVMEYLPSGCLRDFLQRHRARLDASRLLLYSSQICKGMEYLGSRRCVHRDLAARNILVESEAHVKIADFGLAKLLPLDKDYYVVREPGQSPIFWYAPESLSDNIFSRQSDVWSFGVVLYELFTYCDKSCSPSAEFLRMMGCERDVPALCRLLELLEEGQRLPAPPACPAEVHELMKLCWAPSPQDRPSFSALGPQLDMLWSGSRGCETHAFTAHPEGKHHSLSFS
Experimental: as §1, §2, §3, §4
Similarly, RCK:JAK3 selectivity, as measured by the ratio Kd (JAK3): Kd (RCK) is represented as follows: A represents Kd (JAK3): Kd (RCK)>100; B represents 10<Kd (JAK3): Kd (RCK)<100; C represents 1<Kd (JAK3): Kd (RCK)<10; and D represents Kd (JAK3): Kd(RCK)<1.

Structure (SMILES) | Kd [1] | Kd (JAK2) | Kd (JAK3) | RCK:JAK2 selectivity ratio (JAK2) | RCK:JAK3 selectivity ratio (JAK3)
Cc1cc(CNc2[nH]nc(Nc3ccc(-c4cccnc4)cc3)c2C(N)=O)cc(C)c1O [Compound 16, 5-((4-hydroxy-3,5-dimethylbenzyl)amino)-3-((4-(pyridin-3-yl)phenyl)amino)-1H-pyrazole-4-carboxamide] | 0.05 to 0.1 µM | > 1 µM | > 1 µM | B (B represents 10<Kd(JAK2): Kd (RCK)<100) | B (B represents 10<Kd (JAK3): Kd (RCK)<100)
Cc1cc(CNc2[nH]nc(Nc3ccc(-c4ccccc4)cc3)c2C(N)=O)cc(C)c1O [Compound 18, 3-([1,1′-biphenyl]-4-ylamino)-5-((4-hydroxy-3,5-dimethylbenzyl)amino)-1H-pyrazole-4-carboxamide] | > 1 µM | > 1 µM | > 1 µM | C (C represents 1<Kd (JAK2): Kd (RCK)<10) | C (C represents 1<Kd (JAK3): Kd (RCK)<10)
Cc1cc(CNc2[nH]nc(Nc3ccc(-n4ccnc4)cc3)c2C(N)=O)cc(C)c1O [Compound 19, 3-((4-(1H-imidazol-1-yl)phenyl)amino)-5-((4-hydroxy-3,5-dimethylbenzyl)amino)-1H-pyrazole-4-carboxamide] | 0.1 to 1 µM | > 1 µM | > 1 µM | A (A represents Kd (JAK2): Kd (RCK)>100) | A (A represents Kd (JAK3): Kd (RCK)>100)
COc1ccc(Nc2n[nH]c(NCc3cc(C)c(O)c(C)c3)c2C(N)=O)cc1 [Compound 20, 5-((4-hydroxy-3,5-dimethylbenzyl)amino)-3-((4-methoxyphenyl)amino)-1H-pyrazole-4-carboxamide] | 0.1 to 1 µM | > 1 µM | > 1 µM | C (C represents 1<Kd (JAK2): Kd (RCK)<10) | B (B represents 10<Kd (JAK3): Kd (RCK)<100)
Cc1cc(CNc2[nH]nc(Nc3ccc(C(C)(C)C)cc3)c2C(N)=O)cc(C)c1O [Compound 21, 3-((4-(tert-butyl)phenyl)amino)-5-((4-hydroxy-3,5-dimethylbenzyl)amino)-1H-pyrazole-4-carboxamide] | > 1 µM | > 1 µM | > 1 µM | C (C represents 1<Kd (JAK2): Kd (RCK)<10) | –
Cc1cc(CNc2[nH]nc(Nc3ccc4[nH]ncc4c3)c2C(N)=O)cc(C)c1O [Compound 22, 3-((1H-indazol-5-yl)amino)-5-((4-hydroxy-3,5-dimethylbenzyl)amino)-1H-pyrazole-4-carboxamide] | 0.1 to 1 µM | > 1 µM | > 1 µM | C (C represents 1<Kd (JAK2): Kd (RCK)<10) | B (B represents 10<Kd (JAK3): Kd (RCK)<100)
Cc1cc(CNc2[nH]nc(Nc3ccc(N4C[C@@H](C)O[C@@H](C)C4)nc3)c2C(N)=O)cc(C)c1O [Compound 26] | 0.1 to 1 µM | > 1 µM | > 1 µM | B (B represents 10<Kd(JAK2): Kd (RCK)<100) | B (B represents 10<Kd (JAK3): Kd (RCK)<100)

Now from value to compound, other results behind:

Kd [1] | Kd (JAK2) | Kd (JAK3) | Structure (SMILES) | RCK:JAK2 selectivity ratio (JAK2) | RCK:JAK3 selectivity ratio (JAK3)
< 0.05 µM | 0.1 to 1 µM | 0.1 to 1 µM | Cc1cc(CNc2[nH]nc(Nc3ccc(N4CCN(C(C)C)CC4)c(Cl)c3)c2C(N)=O)cc(C)c1O [Compound 17, 3-((3-chloro-4-(4-isopropylpiperazin-1-yl)phenyl)amino)-5-((4-hydroxy-3,5-dimethylbenzyl)amino)-1H-pyrazole-4-carboxamide] | A (A represents Kd (JAK2): Kd (RCK)>100) | A (A represents Kd (JAK3): Kd (RCK)>100)
< 0.05 µM | > 1 µM | > 1 µM | Cc1cc(CNc2[nH]nc(Nc3ccc(N4CCC(N5CCC(C)CC5)CC4)cc3)c2C(N)=O)cc(C)c1O [Compound 23, 5-((4-hydroxy-3,5-dimethylbenzyl)amino)-3-((4-(4-methyl-[1,4′-bipiperidin]-1′-yl)phenyl)amino)-1H-pyrazole-4-carboxamide] | B (B represents 10<Kd(JAK2): Kd (RCK)<100) | B (B represents 10<Kd (JAK3): Kd (RCK)<100)
< 0.05 µM | > 1 µM | > 1 µM | Cc1cc(CNc2[nH]nc(Nc3ccc(N4CCN(C(=O)N5CCCC5)CC4)cc3)c2C(N)=O)cc(C)c1O [Compound 24, 5-((4-hydroxy-3,5-dimethylbenzyl)amino)-3-((4-(4-(pyrrolidine-1-carbonyl)piperazin-1-yl)phenyl)amino)-1H-pyrazole-4-carboxamide] | B (B represents 10<Kd(JAK2): Kd (RCK)<100) | A (A represents Kd (JAK3): Kd (RCK)>100)
0.1 to 1 µM | > 1 µM | > 1 µM | Cc1cc(CNc2[nH]nc(Nc3ccc(N4CCC(F)CC4)cc3)c2C(N)=O)cc(C)c1O [Compound 25, 3-((4-(4-fluoropiperidin-1-yl)phenyl)amino)-5-((4-hydroxy-3,5-dimethylbenzyl)amino)-1H-pyrazole-4-carboxamide] | C (C represents 1<Kd (JAK2): Kd (RCK)<10) | B (B represents 10<Kd (JAK3): Kd (RCK)<100)
0.1 to 1 µM | > 1 µM | > 1 µM | Cc1cc(CNc2[nH]nc(Nc3ccc(N4CCCCC4)cc3)c2C(N)=O)cc(C)c1O [Compound 27, 5-((4-hydroxy-3,5-dimethylbenzyl)amino)-3-((4-(piperidin-1-yl)phenyl)amino)-1H-pyrazole-4-carboxamide] | B (B represents 10<Kd(JAK2): Kd (RCK)<100) | B (B represents 10<Kd (JAK3): Kd (RCK)<100)
< 0.05 µM | 0.1 to 1 µM | > 1 µM | Cc1cc(Nc2n[nH]c(NCc3cc(C)c(O)c(C)c3)c2C(N)=O)ccc1N1CCN(C)CC1 [Compound 29, 5-((4-hydroxy-3,5-dimethylbenzyl)amino)-3-((3-methyl-4-(4-methylpiperazin-1-yl)phenyl)amino)-1H-pyrazole-4-carboxamide] | B (B represents 10<Kd(JAK2): Kd (RCK)<100) | B (B represents 10<Kd (JAK3): Kd (RCK)<100)
0.05 to 0.1 µM | > 1 µM | > 1 µM | Cc1cc(Nc2n[nH]c(NCc3cc(C)c(O)c(C)c3)c2C(N)=O)ccc1N1CCCCC1 [Compound 30, 5-((4-hydroxy-3,5-dimethylbenzyl)amino)-3-((3-methyl-4-(piperidin-1-yl)phenyl)amino)-1H-pyrazole-4-carboxamide] | B (B represents 10<Kd(JAK2): Kd (RCK)<100) | B (B represents 10<Kd (JAK3): Kd (RCK)<100)
< 0.05 µM | > 1 µM | > 1 µM | Cc1cc(CNc2[nH]nc(Nc3ccc(N4CCN(Cc5ccccc5)CC4)cc3)c2C(N)=O)cc(C)c1O [Compound 31, 3-((4-(4-benzylpiperazin-1-yl)phenyl)amino)-5-((4-hydroxy-3,5-dimethylbenzyl)amino)-1H-pyrazole-4-carboxamide] | B (B represents 10<Kd(JAK2): Kd (RCK)<100) | B (B represents 10<Kd (JAK3): Kd (RCK)<100)
